Measured values as given in the supplement of paper PMC10307832.

What was measured:
Experiment in all cases: relative viability (nuclei count vs DMSO), 5 days (fraction); higher = more cells survive
Carboplatin + Navitoclax = compound: C1CC(C1)(C(=O)O)C(=O)O.[NH2-].[NH2-].[Pt+2] [Carboplatin] + CC1(C)CCC(c2ccc(Cl)cc2)=C(CN2CCN(c3ccc(C(=O)NS(=O)(=O)c4ccc(N[C@H](CCN5CCOCC5)CSc5ccccc5)c(S(=O)(=O)C(F)(F)F)c4)cc3)CC2)C1 [Navitoclax] (partner 0.5 µM)
Outline: (§1)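 Relative viability was taken as the ratio of nuclei in treated wells to nuclei in vehicle wells. Lung cancer cell lines in 1536-well plates received compounds by pin tool one day after seeding, either one drug alone or a fixed anchor-drug dose plus five library-drug doses (not always all listed) in √10 steps. Nuclei were counted on 4× images after 5 days of treatment, and values are medians of duplicate plates.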

MLN4924 + Linsitinib = compound: NS(=O)(=O)OC[C@@H]1C[C@@H](n2ccc3c(N[C@H]4CCc5ccccc54)ncnc32)C[C@@H]1O [MLN4924] + C[C@]1(O)C[C@@H](c2nc(-c3ccc4ccc(-c5ccccc5)nc4c3)c3c(N)nccn32)C1 [Linsitinib] (partner 1 µM)
Outline: as §1

MLN4924 + Trametinib = compound: NS(=O)(=O)OC[C@@H]1C[C@@H](n2ccc3c(N[C@H]4CCc5ccccc54)ncnc32)C[C@@H]1O [MLN4924] + CC(=O)Nc1cccc(-n2c(=O)n(C3CC3)c(=O)c3c(Nc4ccc(I)cc4F)n(C)c(=O)c(C)c32)c1 [Trametinib] (partner 0.02 µM)
Outline: as §1

GSK126 + OSI-027 = compound: CC[C@H](C)N1C=C(C2=C(C=C(C=C21)C3=CN=C(C=C3)N4CCNCC4)C(=O)NCC5=C(C=C(NC5=O)C)C)C [GSK126] + COc1cccc2cc(-c3nc([C@H]4CC[C@H](C(=O)O)CC4)n4ncnc(N)c34)[nH]c12 [OSI-027] (partner 0.5 µM)
Outline: as §1

Cell Line | relative viability (Carboplatin + Navitoclax; first compound 0.08 µM) | relative viability (Carboplatin + Navitoclax; first compound 0.253 µM) | relative viability (Carboplatin + Navitoclax; first compound 0.8 µM) | relative viability (Carboplatin + Navitoclax; first compound 2.53 µM) | relative viability (Carboplatin + Navitoclax; first compound 8 µM) | relative viability (MLN4924 + Linsitinib; first compound 0.04 µM) | relative viability (MLN4924 + Linsitinib; first compound 0.1265 µM) | relative viability (MLN4924 + Linsitinib; first compound 0.4 µM) | relative viability (MLN4924 + Linsitinib; first compound 1.265 µM) | relative viability (MLN4924 + Linsitinib; first compound 4 µM) | relative viability (MLN4924 + Trametinib; first compound 0.04 µM) | relative viability (MLN4924 + Trametinib; first compound 0.1265 µM) | relative viability (MLN4924 + Trametinib; first compound 0.4 µM) | relative viability (MLN4924 + Trametinib; first compound 1.265 µM) | relative viability (MLN4924 + Trametinib; first compound 4 µM) | relative viability (GSK126 + OSI-027; first compound 0.08 µM) | relative viability (GSK126 + OSI-027; first compound 0.253 µM) | relative viability (GSK126 + OSI-027; first compound 0.8 µM) | relative viability (GSK126 + OSI-027; first compound 2.53 µM) | relative viability (GSK126 + OSI-027; first compound 8 µM)
NCI-H2085 | 1.25 | 1.09 | 1.09 | 1.05 | 1.09 | 0.868 | 0.839 | 0.577 | 0.313 | 0.235 | 0.486 | 0.509 | 0.575 | 0.559 | 0.293 | 0.919 | 0.716 | 0.839 | 0.683 | 0.812
EKVX | 0.948 | 1.03 | 0.909 | 0.967 | 0.852 | 0.949 | 0.653 | 0.471 | 0.169 | 0.127 | 0.314 | 0.349 | 0.319 | 0.244 | 0.193 | 0.753 | 0.679 | 0.669 | 0.822 | 0.781
NCI-H1792 | 0.887 | 0.682 | 0.667 | 0.618 | 0.567 | 0.548 | 0.664 | 0.804 | 0.184 | 0.124 | 0.376 | 0.441 | 0.566 | 0.433 | 0.238 | 0.643 | 0.796 | 0.679 | 0.786 | 0.675
NCI-H2405 | 0.869 | 0.862 | 0.639 | 0.629 | 0.62 | 1.09 | 1.12 | 0.686 | 0.246 | 0.245 | 0.882 | 0.893 | 0.621 | 0.292 | 0.254 | 0.602 | 0.633 | 0.611 | 0.622 | 0.662
201T | 1.2 | 1.18 | 1.12 | 1.14 | 1.18 | 1.22 | 1.29 | 1.17 | 0.481 | 0.505 | 0.786 | 0.676 | 0.523 | 0.3 | 0.322 | 0.822 | 0.772 | 0.736 | 0.865 | 0.759
NCI-H1755 | 1.02 | 1.01 | 1.04 | 1.02 | 0.891 | 1.07 | 0.701 | 0.447 | 0.159 | 0.2 | 0.813 | 0.749 | 0.801 | 0.348 | 0.215 | 0.747 | 0.725 | 0.75 | 0.8 | 0.689
NCI-H647 | 1.18 | 1.17 | 1.08 | 1.09 | 0.784 | 0.709 | 0.499 | 0.137 | 0.0815 | 0.0619 | 0.576 | 0.538 | 0.25 | 0.0717 | 0.072 | 0.69 | 0.528 | 0.63 | 0.649 | 0.692
NCI-H1651 | 0.973 | 1.13 | 0.982 | 0.904 | 0.538 | 1.13 | 0.973 | 0.431 | 0.334 | 0.135 | 0.799 | 0.853 | 0.81 | 0.512 | 0.185 | 0.718 | 0.755 | 0.699 | 0.789 | 0.697
